Laboratory results published in patent US11963995B2, “Methods comprising desmopressin” (Ferring B.V., priority 2008, dated 2024).

Tested on: adult patients with nocturia
Experiment: Change in urine volume (nocturnal, total) from baseline to Day 28 (Part I)
Type: in vivo, human
Settings: for Change from baseline to final visit (Day 28) of nocturnal urine volume, median / Change from baseline to final visit (Day 28) of nocturnal urine volume, mean: ITT, Part I; for median decrease of nocturnal urine volume compared to baseline before treatment: Day 28
Experimental: As used herein, the term “nocturnal urine” refers to the total urine volume from 5 minutes after bedtime until rising in the morning, including the first void within 30 minutes of rising.
All treatments were administered orally once per night approximately 1 hour prior to bedtime; subjects were instructed to limit their fluid intake prior to drug self-administration. […] Randomization was to be stratified by age (<65, ≥65 years) and by the absence/presence of nocturnal polyuria, defined as a ratio of nighttime urine volume/24-hour urine volume 33%. To achieve the desired number of subjects within each stratum, enrollment of subjects in a particular stratum (age and/or presence/absence of nocturnal polyuria) could be halted. If this was necessary, all investigative sites were to be informed in writing at least 1 week in advance to stop screening in a population of subjects.
Changes in urine volume from baseline to the end of Day 28 were also assessed and included herein.
Missing values concerning number of nocturnal voids at Day 8, Day 15, Day 22, and Day 28 in Part I were imputed using last observation carried forward (LOCF). Missing values concerning sleep disturbance and urine volume (for average 24-hour urine volume and average nocturnal urine volume) were not imputed.

[1] = 10 ug, females over 50 years of age
[2] = 25 ug, females over 50 years of age
[3] = 50 ug, females over 50 years of age
[4] = 100 ug, females over 50 years of age
[5] = all males with monitoring, 10 ug dose
[6] = all males with monitoring, 25 ug dose
[7] = all males with monitoring, 50 ug dose
[8] = all males with monitoring, 100 ug dose
[9] = females over 65 years of age, 10 ug dose
[10] = females over 65 years of age, 25 ug dose
[11] = females over 65 years of age, 50 ug dose
[12] = females over 65 years of age, 100 ug dose

For `NC(=O)CC[C@@H]1NC(=O)[C@H](Cc2ccccc2)NC(=O)[C@H](Cc2ccc(O)cc2)NC(=O)CCSSC[C@@H](C(=O)N2CCC[C@H]2C(=O)N[C@H](CCCN=C(N)N)C(=O)NCC(N)=O)NC(=O)[C@H](CC(N)=O)NC1=O` [desmopressin], which “Change from baseline to final visit (Day 28) of nocturnal urine volume, median” value (“Change from baseline to final visit … median” below) (10 ug, all females) is on record?
Its value is -179 mL.

What about the “median decrease of nocturnal urine volume compared to baseline before treatment” value (“median decrease” for short) (10 μg, all groups) of the same molecule?
The value was 150 mL.

What about the “Change from baseline to final visit (Day 28) of nocturnal urine volume, mean” value (“Change from baseline to final visit … mean” for short) (10 ug, all groups) of the same molecule?
Its value is -164 mL.

And the “Change from baseline to final visit … median” value (10 ug, all groups)?
The value was -150 mL.

And the “median decrease” value (10 μg, females over 50 years of age)?
Its value is 150 mL.

And the “Change from baseline to final visit … mean” value [1]?
The value was -197 mL.

And the “Change from baseline to final visit … median” value [1]?
Its value is -150 mL.

What about the “median decrease” value (25 μg, all females) of the same molecule?
Its value is 298 mL.

What about the “Change from baseline to final visit … mean” value (25 ug, all females) of the same molecule?
The value was -307 mL.

What about the “Change from baseline to final visit … median” value (25 ug, all females) of the same molecule?
The value was -298 mL.

And the “Change from baseline to final visit … mean” value (25 ug, all groups)?
The value was -224 mL.

And the “Change from baseline to final visit … median” value (25 ug, all groups)?
Its value is -233 mL.

And the “median decrease” value (25 μg, females over 50 years of age)?
The value was 383 mL.

What about the “Change from baseline to final visit … mean” value [2] of the same molecule?
The value was -356 mL.

What about the “Change from baseline to final visit … median” value [2] of the same molecule?
Its value is -383 mL.

And the “median decrease” value (25 μg, females over 65 years of age)?
Its value is 383 mL.

And the “Change from baseline to final visit … mean” value (50 ug, all females)?
Its value is -257 mL.

And the “Change from baseline to final visit … median” value (50 ug, all females)?
Its value is -204 mL.

And the “Change from baseline to final visit … mean” value (50 ug, all groups)?
Its value is -272 mL.

And the “Change from baseline to final visit … median” value (50 ug, all groups)?
The value was -233 mL.

And the “Change from baseline to final visit … mean” value [3]?
The value was -249 mL.

And the “Change from baseline to final visit … median” value [3]?
Its value is -196 mL.

What about the “Change from baseline to final visit … mean” value (100 ug, all females) of the same molecule?
The value was -321 mL.

What about the “Change from baseline to final visit … median” value (100 ug, all females) of the same molecule?
Its value is -283 mL.

And the “Change from baseline to final visit … mean” value (100 ug, all groups)?
The value was -312 mL.

What about the “Change from baseline to final visit … median” value (100 ug, all groups) of the same molecule?
Its value is -283 mL.

And the “Change from baseline to final visit … mean” value [4]?
The value was -317 mL.

And the “Change from baseline to final visit … median” value [4]?
The value was -275 mL.

What about the “median decrease” value (100 μg, males with monitoring) of the same molecule?
The value was 264 mL.

What about the “Change from baseline to final visit … mean” value [5] of the same molecule?
The value was -122 mL.

What about the “Change from baseline to final visit … median” value [5] of the same molecule?
Its value is -83 mL.

What about the “Change from baseline to final visit … mean” value [6] of the same molecule?
Its value is -146 mL.

What about the “Change from baseline to final visit … median” value [6] of the same molecule?
The value was -167 mL.

What about the “Change from baseline to final visit … mean” value [7] of the same molecule?
Its value is -286 mL.

And the “Change from baseline to final visit … median” value [7]?
The value was -235 mL.

What about the “Change from baseline to final visit … mean” value [8] of the same molecule?
Its value is -296 mL.

What about the “Change from baseline to final visit … median” value [8] of the same molecule?
Its value is -264 mL.

And the “Change from baseline to final visit … mean” value (all males, 10 ug dose)?
The value was -125 mL.

And the “Change from baseline to final visit … median” value (all males, 10 ug dose)?
The value was -117 mL.

What about the “Change from baseline to final visit … mean” value (all males, 25 ug dose) of the same molecule?
Its value is -162 mL.

What about the “Change from baseline to final visit … median” value (all males, 25 ug dose) of the same molecule?
The value was -200 mL.

What about the “Change from baseline to final visit … mean” value (all males, 50 ug dose) of the same molecule?
Its value is -286 mL.

What about the “Change from baseline to final visit … median” value (all males, 50 ug dose) of the same molecule?
The value was -246 mL.

What about the “Change from baseline to final visit … mean” value (all males, 100 ug dose) of the same molecule?
Its value is -306 mL.

And the “Change from baseline to final visit … median” value (all males, 100 ug dose)?
The value was -270 mL.

What about the “Change from baseline to final visit … mean” value [9] of the same molecule?
Its value is -91 mL.

And the “Change from baseline to final visit … median” value [9]?
The value was -54 mL.

What about the “Change from baseline to final visit … mean” value [10] of the same molecule?
Its value is -372 mL.

What about the “Change from baseline to final visit … median” value [10] of the same molecule?
The value was -383 mL.

What about the “Change from baseline to final visit … mean” value [11] of the same molecule?
Its value is -208 mL.

What about the “Change from baseline to final visit … median” value [11] of the same molecule?
Its value is -203 mL.

What about the “Change from baseline to final visit … mean” value [12] of the same molecule?
Its value is -323 mL.

What about the “Change from baseline to final visit … median” value [12] of the same molecule?
The value was -285 mL.
